In ChEMBL document CHEMBL4428125, “8-Substituted 1,3-dimethyltetrahydropyrazino[2,1-f]purinediones: Water-soluble adenosine receptor antagonists and monoamine oxidase B inhibitors” (Bioorg Med Chem, 2016):
≈ marks a conversion by molar mass, not a printed value.

Columns and labels:
[1] = target: T1, Adenosine receptor A2b (Homo sapiens) (UniProt P29275); assay: Displacement of [3H]PSB-603 from human A2B receptor expressed in CHO cell membrane at 0.3 uM relative to control; assay type: cell membranes
T1 sequence (whole entry): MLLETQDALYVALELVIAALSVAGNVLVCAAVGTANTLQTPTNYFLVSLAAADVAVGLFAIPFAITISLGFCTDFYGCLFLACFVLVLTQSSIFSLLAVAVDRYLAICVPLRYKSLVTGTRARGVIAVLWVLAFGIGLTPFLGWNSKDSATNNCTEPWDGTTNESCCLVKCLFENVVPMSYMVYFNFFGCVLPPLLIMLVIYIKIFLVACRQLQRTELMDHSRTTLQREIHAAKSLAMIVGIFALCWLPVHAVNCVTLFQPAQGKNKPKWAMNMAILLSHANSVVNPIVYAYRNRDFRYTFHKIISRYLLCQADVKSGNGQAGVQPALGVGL

[2] = target: Adenosine receptor A2a (Rattus norvegicus) (UniProt P30543); assay: Displacement of [3H]MSX from A2A receptor in rat brain striatum membranes at 1 uM measured after 30 mins by liquid scintillation counting method relative to control; assay type: cell membranes
Sequence of Adenosine receptor A2a (Rattus norvegicus) (P30543 whole entry): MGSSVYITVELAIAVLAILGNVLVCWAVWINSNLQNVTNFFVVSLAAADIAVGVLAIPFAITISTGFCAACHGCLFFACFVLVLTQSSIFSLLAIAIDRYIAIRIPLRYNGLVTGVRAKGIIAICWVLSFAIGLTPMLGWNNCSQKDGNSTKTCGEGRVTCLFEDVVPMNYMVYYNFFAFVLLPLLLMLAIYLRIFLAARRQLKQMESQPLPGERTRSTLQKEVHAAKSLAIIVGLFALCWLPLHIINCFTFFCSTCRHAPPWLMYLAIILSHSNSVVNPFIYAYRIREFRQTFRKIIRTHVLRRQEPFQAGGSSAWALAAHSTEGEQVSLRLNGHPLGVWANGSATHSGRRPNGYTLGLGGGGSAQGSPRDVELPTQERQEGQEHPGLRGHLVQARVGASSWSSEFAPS

[3] = target: T2, Amine oxidase [flavin-containing] B (Homo sapiens, UniProt P27338); assay: Inhibition of recombinant human MAO-B expressed in baculovirus infected BTI insect cells at 10 uM preincubated for 30 mins followed by addition of p-tyramine as substrate measured over 45 mins by Amplex Red MAO assay relative to control; details: 0.75 h
T2 sequence (P27338 whole entry): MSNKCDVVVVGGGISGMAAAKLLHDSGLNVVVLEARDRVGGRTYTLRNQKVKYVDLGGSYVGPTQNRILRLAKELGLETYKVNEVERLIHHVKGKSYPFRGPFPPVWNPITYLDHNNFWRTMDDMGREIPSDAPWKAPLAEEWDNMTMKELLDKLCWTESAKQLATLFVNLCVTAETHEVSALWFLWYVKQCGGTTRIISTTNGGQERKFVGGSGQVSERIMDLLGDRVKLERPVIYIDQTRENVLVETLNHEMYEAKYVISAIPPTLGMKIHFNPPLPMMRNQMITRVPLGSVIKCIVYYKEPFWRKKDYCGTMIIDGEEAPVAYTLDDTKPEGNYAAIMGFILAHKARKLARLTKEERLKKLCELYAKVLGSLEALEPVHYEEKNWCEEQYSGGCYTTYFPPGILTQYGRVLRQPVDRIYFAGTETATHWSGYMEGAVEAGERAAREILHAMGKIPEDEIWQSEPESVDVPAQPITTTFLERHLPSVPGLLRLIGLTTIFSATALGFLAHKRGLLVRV

[4] = target: T3, Adenosine receptor A1 (Rattus norvegicus) (UniProt P25099); assay: Displacement of [3H]CCPA from A1 receptor in rat brain cortex membranes at 1.5 uM by liquid scintillation counting method; assay type: cell membranes
T3 sequence (whole entry): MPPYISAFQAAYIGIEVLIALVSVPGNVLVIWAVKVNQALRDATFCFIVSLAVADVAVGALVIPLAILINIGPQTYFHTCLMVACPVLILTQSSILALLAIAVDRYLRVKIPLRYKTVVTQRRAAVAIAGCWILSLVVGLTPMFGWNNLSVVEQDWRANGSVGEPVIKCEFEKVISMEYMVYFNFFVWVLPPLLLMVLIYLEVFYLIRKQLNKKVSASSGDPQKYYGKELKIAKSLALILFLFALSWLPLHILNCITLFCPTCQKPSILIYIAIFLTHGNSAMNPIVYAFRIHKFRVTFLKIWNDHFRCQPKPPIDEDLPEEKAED

[5] = Thermodynamic solubility of the compound at pH 1; assay type: physicochemical; details: buffer, read-out: Therm_solubility
Adenosine receptor A3 = target: T4, Adenosine receptor A3 (Homo sapiens, UniProt P0DMS8); assay: Displacement of [3H]PSB-11 from human A3 receptor expressed in CHO cell membrane by liquid scintillation counting method relative to control; assay type: cell membranes
T4 sequence (P0DMS8 whole entry): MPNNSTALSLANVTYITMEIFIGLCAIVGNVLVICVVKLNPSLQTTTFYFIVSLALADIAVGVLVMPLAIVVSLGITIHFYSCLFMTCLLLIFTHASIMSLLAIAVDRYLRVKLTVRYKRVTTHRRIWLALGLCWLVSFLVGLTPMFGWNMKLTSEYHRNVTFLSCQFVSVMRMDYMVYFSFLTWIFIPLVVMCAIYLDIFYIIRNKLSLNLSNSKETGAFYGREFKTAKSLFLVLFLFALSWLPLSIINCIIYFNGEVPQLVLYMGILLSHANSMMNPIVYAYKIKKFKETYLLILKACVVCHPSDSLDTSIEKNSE

Adenosine receptor A2b = target: T5, Adenosine receptor A2b (Homo sapiens, UniProt P29275); assay: Displacement of [3H]PSB-603 from human A2B receptor expressed in CHO cell membrane; assay type: cell membranes
T5 sequence (P29275 whole entry): T1 sequence (whole entry)

Adenosine receptor A1 [6] = target: T6, Adenosine receptor A1 (Rattus norvegicus, UniProt P25099); assay: Displacement of [3H]CCPA from A1 receptor in rat brain cortex membranes by liquid scintillation counting method; assay type: cell membranes
T6 sequence (P25099 whole entry): T3 sequence (whole entry)

[7] = target: T7, Adenosine receptor A3 (Homo sapiens) (UniProt P0DMS8); assay: Displacement of [3H]PSB-11 from human A3 receptor expressed in CHO cell membrane at 10 uM by liquid scintillation counting method relative to control relative to control; assay type: cell membranes
T7 sequence (whole entry): T4 sequence (P0DMS8 whole entry)

[8] = Thermodynamic solubility of the compound at pH 7.4; assay type: physicochemical; details: buffer, read-out: Therm_solubility
[9] = Thermodynamic solubility of the compound at pH 4; assay type: physicochemical; details: buffer, read-out: Therm_solubility
Adenosine receptor A2a [10] = target: Adenosine receptor A2a (Rattus norvegicus, UniProt P30543); assay: Displacement of [3H]MSX from A2A receptor in rat brain striatum membranes measured after 30 mins by liquid scintillation counting method; assay type: cell membranes
Sequence of Adenosine receptor A2a (Rattus norvegicus, UniProt P30543) (P30543 whole entry): as the sequence (P30543 whole entry) above

[11] = target: T1, Adenosine receptor A2b (Homo sapiens); assay: Displacement of [3H]PSB-603 from human A2B receptor expressed in CHO cell membrane at 1 uM relative to control; assay type: cell membranes
[12] = target: T7, Adenosine receptor A3 (Homo sapiens); assay: Displacement of [3H]PSB-11 from human A3 receptor expressed in CHO cell membrane at 3 uM by liquid scintillation counting method relative to control relative to control; assay type: cell membranes
[13] = target: T2, Amine oxidase [flavin-containing] B; assay: Inhibition of recombinant human MAO-B expressed in baculovirus infected BTI insect cells preincubated for 30 mins followed by addition of p-tyramine as substrate measured over 45 mins by Amplex Red MAO assay
[14] = target: T8, Amine oxidase [flavin-containing] A (Homo sapiens, UniProt P21397); assay: Inhibition of recombinant human MAO-A expressed in baculovirus infected BTI insect cells preincubated for 30 mins followed by addition of p-tyramine as substrate measured over 45 mins by Amplex Red MAO assay
T8 sequence (P21397 whole entry): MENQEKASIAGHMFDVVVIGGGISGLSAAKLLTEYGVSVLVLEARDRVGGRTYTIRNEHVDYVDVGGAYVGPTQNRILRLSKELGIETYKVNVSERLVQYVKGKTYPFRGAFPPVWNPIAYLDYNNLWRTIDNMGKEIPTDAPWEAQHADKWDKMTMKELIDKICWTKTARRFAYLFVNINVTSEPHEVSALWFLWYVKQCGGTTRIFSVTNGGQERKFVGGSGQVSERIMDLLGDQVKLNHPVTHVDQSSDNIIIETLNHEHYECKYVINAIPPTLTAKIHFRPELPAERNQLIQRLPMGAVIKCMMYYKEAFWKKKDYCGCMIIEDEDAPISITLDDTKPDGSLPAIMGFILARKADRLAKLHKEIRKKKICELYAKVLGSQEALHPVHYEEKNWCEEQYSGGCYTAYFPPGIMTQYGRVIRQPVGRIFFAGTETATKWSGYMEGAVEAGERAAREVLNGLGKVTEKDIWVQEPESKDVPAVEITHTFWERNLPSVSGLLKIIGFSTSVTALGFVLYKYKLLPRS

[15] = target: T8, Amine oxidase [flavin-containing] A; assay: Inhibition of recombinant human MAO-A expressed in baculovirus infected BTI insect cells at 10 uM preincubated for 30 mins followed by addition of p-tyramine as substrate measured over 45 mins by Amplex Red MAO assay relative to control; details: 0.75 h
Adenosine receptor A2a [16] = target: Adenosine receptor A2a (Homo sapiens, UniProt P29274); assay: Displacement of [3H]MSX from human A2A receptor measured after 30 mins by liquid scintillation counting method
Sequence of Adenosine receptor A2a (Homo sapiens, UniProt P29274) (P29274 whole entry): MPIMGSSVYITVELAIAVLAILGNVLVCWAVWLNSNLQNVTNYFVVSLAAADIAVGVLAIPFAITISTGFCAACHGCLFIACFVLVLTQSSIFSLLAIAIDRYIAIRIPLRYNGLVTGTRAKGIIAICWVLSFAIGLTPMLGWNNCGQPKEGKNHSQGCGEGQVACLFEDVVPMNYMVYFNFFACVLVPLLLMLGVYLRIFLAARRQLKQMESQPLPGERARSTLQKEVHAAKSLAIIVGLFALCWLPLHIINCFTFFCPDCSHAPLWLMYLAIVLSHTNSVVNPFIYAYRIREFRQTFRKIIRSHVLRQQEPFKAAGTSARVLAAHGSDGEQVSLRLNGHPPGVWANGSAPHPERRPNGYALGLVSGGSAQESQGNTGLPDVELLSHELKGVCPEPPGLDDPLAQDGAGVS

Adenosine receptor A1 [17] = target: T9, Adenosine receptor A1 (Homo sapiens, UniProt P30542); assay: Displacement of [3H]CCPA from human A1 receptor expressed in CHO cell membrane by liquid scintillation counting method; assay type: cell membranes
T9 sequence (P30542 whole entry): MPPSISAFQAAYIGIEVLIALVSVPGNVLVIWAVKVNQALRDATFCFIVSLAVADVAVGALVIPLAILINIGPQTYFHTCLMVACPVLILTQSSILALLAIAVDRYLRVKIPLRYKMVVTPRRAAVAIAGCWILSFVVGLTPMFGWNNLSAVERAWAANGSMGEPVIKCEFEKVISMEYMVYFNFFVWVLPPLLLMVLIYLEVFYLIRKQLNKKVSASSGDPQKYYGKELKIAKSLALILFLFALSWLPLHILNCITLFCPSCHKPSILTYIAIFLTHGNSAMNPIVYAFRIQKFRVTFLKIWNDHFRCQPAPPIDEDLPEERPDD

Activity [1]	Activity [2]	inhibition at 10 µM [3]	Activity [4]	solubility thermodynamic [5]	Ki (Adenosine receptor A3)	Ki (Adenosine receptor A2b)	Ki (Adenosine receptor A1 [6])	Activity [7]	solubility thermodynamic [8]	solubility thermodynamic [9]	Ki (Adenosine receptor A2a [10])	Activity [11]	Activity [12]	IC50 [13]	IC50 [14]	inhibition at 10 µM [15]	Ki (Adenosine receptor A2a [16])	Ki (Adenosine receptor A1 [17])	Structure (SMILES)
13%	25%	58%	4%	400 µg/mL (≈ 940 µM)	> 10000 nM	> 300 nM	> 1500 nM	14%	< 0.5 µg/mL	< 0.5 µg/mL	> 1000 nM	–	–	–	–	–	–	–	Cn1c(=O)c2c(nc3n2CCN(CCc2cc(C(F)(F)F)ccc2F)C3)n(C)c1=O
–	10%	27%	-4%	> 1500 µg/mL	> 3000 nM	> 1000 nM	> 1500 nM	–	< 70 µg/mL	< 200 µg/mL	> 1000 nM	10%	3%	> 10000 nM	> 10000 nM	7%	–	–	Cn1c(=O)c2c(nc3n2CCN(CCCn2cccc2)C3)n(C)c1=O
10%	28%	27%	13%	–	> 10000 nM	> 300 nM	> 1500 nM	19%	800 µg/mL (≈ 2930 µM)	–	> 1000 nM	10%	19%	> 10000 nM	–	–	–	–	C#CCN1CCn2c(nc3c2c(=O)n(C)c(=O)n3C)C1

More lines, now with the values behind:

Structure (SMILES)	Activity [1]	Activity [2]	inhibition at 10 µM [3]	Activity [4]	solubility thermodynamic [5]	Ki (Adenosine receptor A3)	Ki (Adenosine receptor A2b)	Ki (Adenosine receptor A1 [6])	Activity [7]	solubility thermodynamic [8]	solubility thermodynamic [9]	Ki (Adenosine receptor A2a [10])	Activity [11]	Activity [12]	IC50 [13]	IC50 [14]	inhibition at 10 µM [15]	Ki (Adenosine receptor A2a [16])	Ki (Adenosine receptor A1 [17])
Cn1c(=O)c2c(nc3n2CCN(CCOc2ccccc2)C3)n(C)c1=O	4%	24%	16%	-1%	1100 µg/mL (≈ 3100 µM)	> 10000 nM	> 300 nM	> 1500 nM	32%	20 µg/mL (≈ 56.3 µM)	60 µg/mL (≈ 169 µM)	> 1000 nM	–	–	> 10000 nM	> 10000 nM	11%	–	–
Cn1c(=O)c2c(nc3n2CCN(CCCc2cccc(Br)c2)C3)n(C)c1=O	–	–	26%	17%	100 µg/mL (≈ 231 µM)	> 10000 nM	> 1000 nM	> 1500 nM	35%	< 0.5 µg/mL	< 0.5 µg/mL	450 nM	19%	–	> 10000 nM	> 10000 nM	16%	512 nM	3880 nM
